pIC50: −log10 of the molar value.
Molecular target: T1, Des1 (Homo sapiens, UniProt O15121)
T1 sequence (O15121 1-323): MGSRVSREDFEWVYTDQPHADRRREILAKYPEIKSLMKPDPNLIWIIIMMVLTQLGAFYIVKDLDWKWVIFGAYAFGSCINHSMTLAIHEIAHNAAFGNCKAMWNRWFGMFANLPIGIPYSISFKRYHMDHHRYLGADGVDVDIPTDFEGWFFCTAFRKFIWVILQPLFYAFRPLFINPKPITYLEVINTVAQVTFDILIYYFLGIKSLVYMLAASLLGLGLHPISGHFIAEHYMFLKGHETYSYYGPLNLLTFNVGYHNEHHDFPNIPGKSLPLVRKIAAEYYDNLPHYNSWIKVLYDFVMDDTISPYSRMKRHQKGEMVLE
Experiment: Jurkat T cell measurement of conversion of dihydroceramide to ceramide (Des1 activity, LC-MS/MS of NBD-C6-ceramide)
Format: cell-based
Set-up: endogenous in cells; host or cells: Jurkat clone E6-1
Settings: Jurkat clone E6-1 cells, 10 μM NBD-C6-dihydroceramide, 3 hours at 37° C.; for inhibition at 0.5 µM: 0.5 uM compound, read-out: Des1 % Inhib (0.5 uM); for pIC50: read-out: Des1 IC50
Description: Jurkat T Cell Measurement of Conversion of Dihydroceramide to Ceramide
Jurkat clone E6-1 cells were grown and then seeded at 10^6 cells/mL in a 96-well plate (400 μL in each well. The cells were administered 100 μL of cell culture media containing 50-μM NBD-C6-dihydroceramide (Des1 substrate), affording a final concentration of substrate of 10 μM. The cells were incubated with substrate at 4° C. for 30 minutes. Following the incubation at 4° C., the cell suspension was centrifuged at 1200 rpm for 3 minutes, and the cell pellet is resuspended in 400 μL of fresh media containing various concentrations of either fenretinide (known Des1 inhibitor control compound) or test article. The final concentrations of control compound and test compounds were tested in a range from 0-10 μM. The cells and compounds were incubated at 37° C. for 3 hours. Following the 3-hour incubation, the plate was centrifuged at 2500 g for 3 minutes at 4° C., followed by collection and transfer of 200 μL of the supernatant to a new 96-well plate with 300 μL of methanol an containing appropriate internal standards for liquid chromatography/tandem mass spectroscopy (LC/MS/MS) analysis (internal standard: 500 nM labetalol and 100 nM alprazolam). The samples were vortexed for 2 minutes followed by centrifugation at 3,220 g for 20 minutes. Following centrifugation, 200 μL of the supernatant was transferred to a new 96-well plate for LC-MS/MS analysis to determine the amount of NBD-C6-ceramide (Des1 product) produced. The assay was typically performed in duplicate. A reduction of at least 30% compared to vehicle control (0 μM test article) is indicative of an active compound, and a reduction of 75% compared to vehicle control is preferred.

inhibition at 0.5 µM | pIC50 | SMILES
39.2% | – | Cn1cc(C2CCC(C(=O)Nc3ccc(O)cn3)CC2)cn1 (stereo not drawn) [Example 90, N-(5-hydroxypyridin-2-yl)-4-(1-methyl-1H-pyrazol-4-yl)cyclohexane-1-carboxamide]
– | 7.26 | O=C(Nc1ccc(O)cn1)N1CCCN(c2ccc(Cl)cn2)CC1 [Example 85, 4-(5-chloropyridin-2-yl)-N-(5-hydroxypyridin-2-yl)-1,4-diazepane-1-carboxamide]
38.5% | – | O=C(Nc1ccc(O)cn1)N1CCCCCC1 [Example 11, N-(5-hydroxypyridin-2-yl)azepane-1-carboxamide]
94.9% | 7.64 | O=C(Nc1ccc(O)cn1)N1CCN(c2cccc(C(F)(F)F)n2)CC1 [Example 36, N-(5-hydroxypyridin-2-yl)-4-[6-(trifluoromethyl)pyridin-2-yl]piperazine-1-carboxamide]
– | 7.92 | O=C(Nc1ccc(O)cn1)N1CCN(c2cc(F)cc(F)c2)CC1 [Example 26, 4-(3,5-difluorophenyl)-N-(5-hydroxypyridin-2-yl)piperazine-1-carboxamide]
89.7% | 6.82 | O=C(Nc1ccc(O)cc1)N1CCN(c2ccc(C(F)(F)F)cc2)CC1 [Example 30, N-(4-hydroxyphenyl)-4-[4-(trifluoromethyl)phenyl]piperazine-1-carboxamide]
96.8% | 8.40 | O=C(Nc1ccc(O)cn1)OC1CCN(c2ccc(Cl)cc2Cl)CC1 [Example 58, 1-(2,4-dichlorophenyl)piperidin-4-yl N-(5-hydroxypyridin-2-yl)carbamate]
51.8% | – | O=C(Nc1ccc(O)cn1)NC1CCCN(c2ccc(F)cc2)C1 (stereo not drawn) [Example 47, 1-[1-(4-fluorophenyl)piperidin-3-yl]-3-(5-hydroxypyridin-2-yl)urea]
– | 6.33 | COc1ccc(N2CCN(C(=O)Nc3ccc(O)cn3)CC2)nc1 [Example 45, N-(5-hydroxypyridin-2-yl)-4-(5-methoxypyridin-2-yl)piperazine-1-carboxamide]
77.9% | – | Cn1ncc2c(N3CCN(C(=O)Nc4ccc(O)cn4)CC3)cccc21 [Example 81, N-(5-hydroxypyridin-2-yl)-4-(1-methyl-1H-indazol-4-yl)piperazine-1-carboxamide]
41.9% | – | O=S(=O)(Nc1ccc(O)cn1)N1CCN(c2ccc(Cl)cn2)CC1 [Example 73, 4-(5-Chloropyridin-2-yl)-N-(5-hydroxypyridin-2-yl)piperazine-1-sulfonamide]
85.3% | – | O=S(=O)(Nc1ccc(O)cn1)C1CCN(c2ccc(Cl)cn2)CC1 [Example 67, 1-(5-chloropyridin-2-yl)-N-(5-hydroxypyridin-2-yl)piperidine-4-sulfonamide]
94.9% | 7.89 | O=C(Nc1ccc(O)cn1)N1CCC(Cc2ccccc2)CC1 [Example 8, 4-Benzyl-N-(5-hydroxypyridin-2-yl)piperidine-1-carboxamide]
91.5% | 7.04 | O=C(Nc1ccc(O)cn1)NC1CCN(c2ccc(F)cc2)CC1 [Example 51, 1-[1-(4-fluorophenyl)piperidin-4-yl]-3-(5-hydroxypyridin-2-yl)urea]

More lines, now with the values behind:

SMILES | inhibition at 0.5 µM | pIC50
O=C(Nc1ccc(O)cn1)N1CCN(c2ccc(F)cc2F)CC1 [Example 13, 4-(2,4-difluorophenyl)-N-(5-hydroxypyridin-2-yl)piperazine-1-carboxamide] | 93% | 7.48 to 8.05
N#Cc1ccc(N2CCN(C(=O)Nc3ccc(O)cn3)CC2)cc1 [Example 27, 4-(4-cyanophenyl)-N-(5-hydroxypyridin-2-yl)piperazine-1-carboxamide] | – | 7.96
O=C(Nc1ccc(O)cn1)N1CCCN(c2ccc(C(F)(F)F)cn2)CC1 [Example 86, N-(5-hydroxypyridin-2-yl)-4-[5-(trifluoromethyl)pyridin-2-yl]-1,4-diazepane-1-carboxamide] | 84.6% | 7.11
O=C(Nc1ccc(O)cc1)N1CCN(c2ccc(F)cc2F)CC1 [Example 28, 4-(2,4-difluorophenyl)-N-(4-hydroxyphenyl)piperazine-1-carboxamide] | 57.8% | –
O=C(Nc1ccc(O)cn1)N1CCN(Cc2ccccc2)CC1 [Example 37, 4-benzyl-N-(5-hydroxypyridin-2-yl)piperazine-1-carboxamide] | 80.7% | –
O=C(Nc1ccc(O)cn1)N1CCN(c2cc(C(F)(F)F)ccn2)CC1 [Example 33, N-(5-hydroxypyridin-2-yl)-4-[4-(trifluoromethyl)pyridin-2-yl]piperazine-1-carboxamide] | 93.1% | 8.15
O=C(Nc1ccc(O)cn1)N1CCN(c2nc(F)c(F)cc2F)CC1 [Example 83, N-(5-hydroxypyridin-2-yl)-4-(3,5,6-trifluoropyridin-2-yl) piperazine-1-carboxamide] | 94.9% | 7.19
O=C(Nc1ccc(O)cn1)N[C@H]1CC[C@H](c2ccccc2)CC1 [Example 19, 3-(5-hydroxypyridin-2-yl)-1-[(1r,4r)-4-phenylcyclohexyl]urea] | 76.7% | –
O=C(Nc1ccc(O)cn1)OC1CCN(c2ccccc2)CC1 [Example 44, 1-Phenylpiperidin-4-yl N-(5-hydroxypyridin-2-yl)carbamate] | 95% | 8.10
O=C(Nc1ccc(O)cn1)N1CCN(c2ccc(OC(F)(F)F)cn2)CC1 [Example 46, N-(5-hydroxypyridin-2-yl)-4-[5-(trifluoromethoxy)pyridin-2-yl]piperazine-1-carboxamide] | 94.5% | 8.15
O=C(OCc1ccccc1)N1CCC(S(=O)(=O)Nc2ccc(O)cn2)CC1 [Example 63, Benzyl 4-[(5-hydroxypyridin-2-yl)sulfamoyl]piperidine-1-carboxylate] | – | < 6.00
O=C(Nc1ccc(O)cn1)N1CCN(c2cc(F)ccn2)CC1 [Example 78, 4-(4-fluoropyridin-2-yl)-N-(5-hydroxypyridin-2-yl)piperazine-1-carboxamide] | 93.4% | 7.19 to 7.72
O=C(Nc1ccc(O)cn1)N1CCCN(c2ccc(F)cn2)CC1 [Example 84, 4-(5-fluoropyridin-2-yl)-N-(5-hydroxypyridin-2-yl)-1,4-diazepane-1-carboxamide] | – | 7.00
COc1ccc(N2CCN(C(=O)Nc3ccc(O)cn3)CC2)cc1 [Example 15, N-(5-hydroxypyridin-2-yl)-4-(4-methoxyphenyl)piperazine-1-carboxamide] | 81.8% | 6.96
O=C(Nc1ccc(O)cn1)NC1CCOCC1 [Example 20, 3-(5-Hydroxypyridin-2-yl)-1-(oxan-4-yl)urea] | 19.6% | –
O=S(=O)(Nc1ccc(O)cn1)C1CCN(c2ccccc2)CC1 [Example 64, N-(5-hydroxypyridin-2-yl)-1-phenylpiperidine-4-sulfonamide] | 19.2% | –
O=C(Nc1ccc(O)cn1)OC1CCN(c2ccc(Cl)cc2)CC1 [Example 55, 1-(4-chlorophenyl)piperidin-4-yl N-(5-hydroxypyridin-2-yl)carbamate] | 96.5% | 8.70
O=C(Nc1ccc(O)cn1)N1CCN(c2ccccc2)CC1 [Example 3, N-(5-Hydroxypyridin-2-yl)-4-phenylpiperazine-1-carboxamide] | 87.9% | 7.28
O=C(Nc1ccc(O)cn1)N1CCN(c2ccc(C(F)(F)F)cn2)CC1 [Example 18, N-(5-hydroxypyridin-2-yl)-4-[5-(trifluoromethyl)pyridin-2-yl]piperazine-1-carboxamide] | 96.6% | 8.40
O=C(Nc1ccc(O)cn1)N1CCC(c2ccccc2)CC1 [Example 1, N-(5-Hydroxypyridin-2-yl)-4-phenylpiperidine-1-carboxamide] | 89.6% | 7.38
O=C(Nc1ccc(O)cn1)N1CCN(c2ccc(C(F)(F)F)cc2)CC1 [Example 14, N-(5-Hydroxypyridin-2-yl)-4-[4-(trifluoromethyl)phenyl]piperazine-1-carboxamide] | 95.9% | 8.52
O=C(Nc1ccc(O)cn1)N1CCCCC1 [Example 10, N-(5-Hydroxypyridin-2-yl)piperidine-1-carboxamide] | 15% | –
